Experimental data published in the supplement of paper PMC11451515.

Tested on: SEM cells
Experiment: cell viability relative to DMSO control; higher = less cytotoxic
Conditions: 48 h
Procedure, shortened: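 Library compounds in DMSO were pin-dosed into 1536-well plates (5 μl) holding NOMO1 or SEM (500 cells/well) or P12-Ichikawa (1000 cells/well) leukemia cells, across an 11-point threefold series of 47 μM to 0.79 nM. Each cell line had been adapted for at least four passages in each medium. CellTiter-Glo One luminescence was read after 48 h at 37°C. Viability is the per-plate percentage relative to DMSO wells, with cell-free wells as background.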

[1] = HPLM + 10% dialyzed FBS, 0.000781 µM
[2] = HPLM + 10% dialyzed FBS, 0.00234 µM
[3] = HPLM + 10% dialyzed FBS, 0.00702 µM
[4] = HPLM + 10% dialyzed FBS, 0.0211 µM
[5] = HPLM + 10% dialyzed FBS, 0.0632 µM
[6] = HPLM + 10% dialyzed FBS, 0.19 µM
[7] = HPLM + 10% dialyzed FBS, 0.569 µM
[8] = HPLM + 10% dialyzed FBS, 1.71 µM
[9] = HPLM + 10% dialyzed FBS, 5.12 µM
[10] = HPLM + 10% dialyzed FBS, 15.4 µM
[11] = HPLM + 10% dialyzed FBS, 46.1 µM
[12] = RPMI 5 mM glucose + 10% FBS, 0.000781 µM
[13] = RPMI 5 mM glucose + 10% FBS, 0.00234 µM
[14] = RPMI 5 mM glucose + 10% FBS, 0.00702 µM
[15] = RPMI 5 mM glucose + 10% FBS, 0.0211 µM
[16] = RPMI 5 mM glucose + 10% FBS, 0.0632 µM
[17] = RPMI 5 mM glucose + 10% FBS, 0.19 µM
[18] = RPMI 5 mM glucose + 10% FBS, 0.569 µM
[19] = RPMI 5 mM glucose + 10% FBS, 1.71 µM
[20] = RPMI 5 mM glucose + 10% FBS, 5.12 µM
[21] = RPMI 5 mM glucose + 10% FBS, 15.4 µM
[22] = RPMI 5 mM glucose + 10% FBS, 46.1 µM
[23] = RPMI 5 mM glucose + 10% dialyzed FBS, 0.000781 µM
[24] = RPMI 5 mM glucose + 10% dialyzed FBS, 0.00234 µM
[25] = RPMI 5 mM glucose + 10% dialyzed FBS, 0.00702 µM
[26] = RPMI 5 mM glucose + 10% dialyzed FBS, 0.0211 µM
[27] = RPMI 5 mM glucose + 10% dialyzed FBS, 0.0632 µM
[28] = RPMI 5 mM glucose + 10% dialyzed FBS, 0.19 µM
[29] = RPMI 5 mM glucose + 10% dialyzed FBS, 0.569 µM
[30] = RPMI 5 mM glucose + 10% dialyzed FBS, 1.71 µM
[31] = RPMI 5 mM glucose + 10% dialyzed FBS, 5.12 µM
[32] = RPMI 5 mM glucose + 10% dialyzed FBS, 15.4 µM
[33] = RPMI 5 mM glucose + 10% dialyzed FBS, 46.1 µM

| Structure (SMILES) | cell viability [1] | cell viability [2] | cell viability [3] | cell viability [4] | cell viability [5] | cell viability [6] | cell viability [7] | cell viability [8] | cell viability [9] | cell viability [10] | cell viability [11] | cell viability [12] | cell viability [13] | cell viability [14] | cell viability [15] | cell viability [16] | cell viability [17] | cell viability [18] | cell viability [19] | cell viability [20] | cell viability [21] | cell viability [22] | cell viability [23] | cell viability [24] | cell viability [25] | cell viability [26] | cell viability [27] | cell viability [28] | cell viability [29] | cell viability [30] | cell viability [31] | cell viability [32] | cell viability [33] |
| --- | --- | --- | --- | --- | --- | --- | --- | --- | --- | --- | --- | --- | --- | --- | --- | --- | --- | --- | --- | --- | --- | --- | --- | --- | --- | --- | --- | --- | --- | --- | --- | --- | --- |
| Cc1nnc(C(C)C)n1[C@@H]1C[C@H]2CC[C@@H](C1)N2CC[C@H](NC(=O)C1CCC(F)(F)CC1)c1ccccc1 | 83.1% | 90.9% | 95.8% | 95% | 77.2% | 98.3% | 105% | 98% | 102% | 64.9% | 57.1% | 78.9% | 74.3% | 82.2% | 93.4% | 86.1% | 103% | 84.9% | 85.6% | 86.1% | 43.6% | 38.6% | 84.6% | 90.5% | 101% | 90.1% | 88.9% | 103% | 87.8% | 103% | 105% | 51.8% | 40.2% |
| OC[C@H]1OC(O)C[C@@H](O)[C@@H]1O (stereo partly drawn) | 83.6% | 32.6% | 104% | 99.5% | 92.4% | 96% | 92.8% | 101% | 101% | 97.8% | 97.9% | 95.6% | 26.8% | 118% | 116% | 114% | 115% | 118% | 125% | 109% | 136% | 127% | 97.6% | 37.5% | 116% | 104% | 118% | 113% | 120% | 120% | 109% | 116% | 119% |
| O=C(Nc1ccccc1)Nc1ccc(-c2ccc(C(=O)[C@@H]3CCC[C@H]3C(=O)O)cc2)cc1 | 101% | 111% | 101% | 110% | 110% | 103% | 99.8% | 107% | 108% | 106% | 105% | 102% | 102% | 111% | 108% | 109% | 99.5% | 114% | 97.6% | 94.6% | 91.2% | 114% | 109% | 103% | 107% | 124% | 104% | 99.7% | 101% | 95.4% | 113% | 107% | 123% |
| CC1=CC/2=C(C=C1C)N(C[C@@H](O)[C@@H](O)[C@@H](O)CO)C/3=N/C(=O)NC(=O)C3=N2 | 117% | 122% | 126% | 118% | 113% | 117% | 129% | 116% | 115% | 127% | 105% | 85.8% | 98.8% | 86.8% | 98.6% | 93.3% | 97.8% | 92.3% | 77.9% | 77.5% | 90.3% | 85.5% | 110% | 127% | 107% | 106% | 110% | 107% | 118% | 113% | 117% | 129% | 102% |
| Cc1cc(/C=c2/sc3nc4ccccc4n3c2=O)c(C)n1-c1ccccc1 | 115% | 121% | 93.5% | 122% | 112% | 128% | 125% | 108% | 128% | 110% | 101% | 117% | 119% | 113% | 137% | 117% | 122% | 130% | 128% | 125% | 125% | 118% | 117% | 110% | 99.1% | 121% | 128% | 122% | 108% | 118% | 111% | 113% | 116% |
| CN1CCC(CNc2ccc3ncc(-c4cccc(OC(F)(F)F)c4)n3n2)CC1 | 107% | 102% | 104% | 95.6% | 89.1% | 89.7% | 74.5% | 49.7% | 41.6% | 32.2% | 5.1% | 109% | 110% | 113% | 97.4% | 96.4% | 97.6% | 78.3% | 52.9% | 42.5% | 35.5% | 6.26% | 93.3% | 109% | 92.8% | 98.7% | 99.4% | 87.3% | 77.3% | 42.3% | 32.4% | 30.4% | 6.78% |
| CC(C)[C@H](O)C(=O)N[C@@H](C)C(=O)N[C@@H]1C(=O)N(C)CCc2ccccc21 | 118% | 122% | 127% | 111% | 132% | 82.7% | 119% | 110% | 74% | 110% | 107% |  |  |  |  |  |  |  |  |  |  |  | 120% | 135% | 116% | 103% | 119% | 94.6% | 97.5% | 109% | 38.1% | 106% | 95.7% |
| C/C=C(\C)C(=O)N[C@@H](c1ccccc1)[C@@H](O)C(=O)O[C@H]1C[C@@]2(O)[C@@H](OC(=O)c3ccccc3)[C@@H]3[C@]4(OC(C)=O)CO[C@@H]4C[C@H](O)[C@@]3(C)C(=O)[C@H](OC(C)=O)C(=C1C)C2(C)C | 34% | 24.3% | 33.2% | 20.6% | 19.2% | 19.8% | 14.9% | 19.6% | 19.9% | 15.9% | 20.5% | 45.4% | 22.3% | 23.3% | 18.4% | 14.1% | 15.5% | 15.4% | 14.9% | 14.3% | 12.5% | 12.2% | 32.4% | 26.1% | 25% | 17.5% | 16.2% | 13.6% | 13.1% | 14.7% | 16.6% | 15.5% | 16.2% |
